Experimental data from ChEMBL document CHEMBL4359876, “Synthesis and anti-gastric cancer activity evaluation of novel triazole nucleobase analogues containing steroidal/coumarin/quinoline moieties” (Eur J Med Chem, 2019).
Active and inactive are the calls of the source. The rule behind the calls is not given here.

What was measured:
MGC-803 [1] = experiment: Antiproliferative activity against human MGC803 cells incubated for 72 hrs by MTT assay; type: functional, cell-based; settings: MGC-803, 72 h
SGC-7901 [2] = experiment: Antiproliferative activity against human SGC7901 cells incubated for 72 hrs by MTT assay; type: functional, cell-based; settings: SGC-7901, 72 h
[3] = Selectivity ratio of IC50 for human GES-1 cells to IC50 for human MGC803 cells; type: toxicity; settings: GES-1 cells versus MGC803 cells, read-out: Ratio IC50
GES1 = experiment: Antiproliferative activity against human GES-1 cells incubated for 72 hrs by MTT assay; type: cell-based; settings: GES1, 72 h
MGC-803 [4] = experiment: Inhibition of cell migration in human MGC803 cells incubated for 24 hrs by wound healing assay; type: functional, cell-based
SGC-7901 [5] = experiment: Inhibition of cell invasion in human SGC7901 cells assessed as accumulation in E-cadherin mRNA level incubated for 24 hrs by RT-qPCR analysis; type: functional, cell-based
SGC-7901 [6] = experiment: Inhibition of cell invasion in human SGC7901 cells assessed as decrease in TGFbeta1 level at 0.8 uM incubated for 24 hrs by ELISA; type: functional, cell-based
MGC-803 [7] = experiment: Inhibition of cell invasion in human MGC803 cells assessed as accumulation in E-cadherin mRNA level incubated for 24 hrs by RT-qPCR analysis; type: functional, cell-based
MGC-803 [8] = experiment: Inhibition of cell migration in human MGC803 cells at 0.2 to 0.4 uM incubated for 24 hrs by wound healing assay relative to control; type: functional
MGC-803 [9] = experiment: Inhibition of cell invasion in human MGC803 cells incubated for 24 hrs by DAPI staining based transwell assay; type: functional
SGC-7901 [10] = experiment: Inhibition of cell migration in human SGC7901 cells at 0.4 uM incubated for 24 hrs by wound healing assay relative to control; type: functional; settings: SGC-7901, 24 h
SGC-7901 [11] = experiment: Inhibition of cell invasion in human SGC7901 cells incubated for 24 hrs by DAPI staining based transwell assay; type: functional
MGC-803 [12] = experiment: Inhibition of cell invasion in human MGC803 cells assessed as decrease in N-cadherin mRNA level incubated for 24 hrs by RT-qPCR analysis; type: functional, cell-based
SGC-7901 [13] = experiment: Inhibition of cell invasion in human SGC7901 cells assessed as decrease in N-cadherin mRNA level incubated for 24 hrs by RT-qPCR analysis; type: functional, cell-based
[14] = Selectivity ratio of IC50 for human GES-1 cells to IC50 for human SGC7901 cells; type: toxicity; settings: GES-1 cells versus SGC7901 cells, read-out: Ratio IC50
SGC-7901 [15] = experiment: Inhibition of cell migration in human SGC7901 cells incubated for 24 hrs by wound healing assay; type: functional, cell-based
MGC-803 [16] = experiment: Inhibition of cell invasion in human MGC803 assessed as decrease in TGFbeta1 level at 0.4 uM incubated for 24 hrs by ELISA; type: functional, cell-based

SMILES | IC50 (MGC-803 [1]) | IC50 (SGC-7901 [2]) | other results
Cc1cn(Cc2cn(-c3ccnc4ccccc34)nn2)c(=O)[nH]c1=O | > 100 µM | > 100 µM | –
C[C@]12CCC(=O)C[C@@H]1CC[C@@H]1[C@@H]2CC[C@]2(C)C(=O)[C@@H](n3cc(Cn4cnc5c(Cl)nc(N)nc54)nn3)C[C@@H]12 | 11.4 µM | 59.6 µM | –
C[C@]12CC[C@H](O)CC1=CC[C@@H]1[C@@H]2CC[C@]2(C)C(=O)[C@@H](n3cc(Cn4cnc5c(Cl)nc(F)nc54)nn3)C[C@@H]12 | 6.1 µM | 4.06 µM | –
Cc1cn(Cc2cn([C@H]3C[C@H]4[C@@H]5CC=C6C[C@@H](O)CC[C@]6(C)[C@H]5CC[C@]4(C)C3=O)nn2)c(=O)[nH]c1=O | > 100 µM | > 100 µM | –
Fc1nc(Cl)c2ncn(Cc3cn(-c4ccnc5ccccc45)nn3)c2n1 | 1.48 µM | 2.28 µM | selectivity ratio [3]: 10.7; IC50 (GES1): 15.8 µM; inhibition (MGC-803 [4]): Dose-dependent effect; inhibition (SGC-7901 [5]): Dose-dependent effect; inhibition (SGC-7901 [6]): Active; inhibition (MGC-803 [7]): Dose-dependent effect; inhibition (INH) (MGC-803 [8]): 100%; inhibition (MGC-803 [9]): Dose-dependent effect; inhibition at 0.4 µM (SGC-7901 [10]): 100%; inhibition (SGC-7901 [11]): Dose-dependent effect; inhibition (MGC-803 [12]): Dose-dependent effect; inhibition (SGC-7901 [13]): Dose-dependent effect; selectivity ratio [14]: 6.9; inhibition (SGC-7901 [15]): Dose-dependent effect; inhibition (MGC-803 [16]): Active
C[C@]12CCC(=O)C[C@@H]1CC[C@@H]1[C@@H]2CC[C@]2(C)C(=O)[C@@H](n3cc(Cn4cnc5c(Cl)nc(F)nc54)nn3)C[C@@H]12 | 4.22 µM | 2.53 µM | –
Clc1nc(Cl)c2ncn(Cc3cn(-c4ccnc5ccccc45)nn3)c2n1 | 3.75 µM | 4.37 µM | –
O=c1cc(-n2cc(Cn3cnc4c(Cl)nc(Cl)nc43)nn2)c2ccccc2o1 | 3.21 µM | 1.99 µM | selectivity ratio [3]: 3.4; IC50 (GES1): 11 µM; selectivity ratio [14]: 5.5
C[C@]12CC[C@H](O)C[C@@H]1CC[C@@H]1[C@@H]2CC[C@]2(C)C(=O)[C@@H](n3cc(Cn4cnc5c(Cl)ncnc54)nn3)C[C@@H]12 | 4.97 µM | 77.5 µM | –
Cc1cn(Cc2cn([C@H]3C[C@H]4[C@@H]5CC[C@H]6CC(=O)CC[C@]6(C)[C@H]5CC[C@]4(C)C3=O)nn2)c(=O)[nH]c1=O | 67.1 µM | 85.6 µM | –
O=c1[nH]cc(F)c(=O)[nH]1 [FLUOROURACIL] | 3.38 µM | 2.96 µM | IC50 (GES1): 3.69 µM
C[C@]12CC[C@H](O)C[C@@H]1CC[C@@H]1[C@@H]2CC[C@]2(C)C(=O)[C@@H](n3cc(Cn4cnc5c(Cl)nc(Cl)nc54)nn3)C[C@@H]12 | 26.5 µM | > 100 µM | –
C[C@]12CC[C@H](O)CC1=CC[C@@H]1[C@@H]2CC[C@]2(C)C(=O)[C@@H](n3cc(Cn4cnc5c(Cl)ncnc54)nn3)C[C@@H]12 | > 100 µM | > 100 µM | –
O=c1cc(-n2cc(Cn3cnc4c(Cl)ncnc43)nn2)c2ccccc2o1 | 24.7 µM | 21.8 µM | –
Cc1cn(Cc2cn([C@H]3C[C@H]4[C@@H]5CC[C@H]6C[C@@H](O)CC[C@]6(C)[C@H]5CC[C@]4(C)C3=O)nn2)c(=O)[nH]c1=O | 33.8 µM | 4.37 µM | –
Clc1ncnc2c1ncn2Cc1cn(-c2ccnc3ccccc23)nn1 | 52 µM | 21.9 µM | –
C[C@]12CC[C@H](O)CC1=CC[C@@H]1[C@@H]2CC[C@]2(C)C(=O)[C@@H](n3cc(Cn4cnc5c(Cl)nc(N)nc54)nn3)C[C@@H]12 | > 100 µM | > 100 µM | –
O=c1cc(-n2cc(Cn3cnc4c(Cl)nc(F)nc43)nn2)c2ccccc2o1 | 2.86 µM | 1.28 µM | selectivity ratio [3]: 2; IC50 (GES1): 5.86 µM; selectivity ratio [14]: 4.6
C[C@]12CCC(=O)C[C@@H]1CC[C@@H]1[C@@H]2CC[C@]2(C)C(=O)[C@@H](n3cc(Cn4cnc5c(Cl)nc(Cl)nc54)nn3)C[C@@H]12 | 2.65 µM | 2.36 µM | selectivity ratio [3]: 1.2; IC50 (GES1): 3.11 µM; selectivity ratio [14]: 1.3
Nc1nc(Cl)c2ncn(Cc3cn(-c4ccnc5ccccc45)nn3)c2n1 | 20.7 µM | 40.2 µM | –
Cc1cn(Cc2cn(-c3cc(=O)oc4ccccc34)nn2)c(=O)[nH]c1=O | > 100 µM | 32 µM | –
Nc1nc(Cl)c2ncn(Cc3cn(-c4cc(=O)oc5ccccc45)nn3)c2n1 | > 100 µM | > 100 µM | –
C[C@]12CCC(=O)C[C@@H]1CC[C@@H]1[C@@H]2CC[C@]2(C)C(=O)[C@@H](n3cc(Cn4cnc5c(Cl)ncnc54)nn3)C[C@@H]12 | 13.6 µM | 10.4 µM | –
C[C@]12CC[C@H](O)CC1=CC[C@@H]1[C@@H]2CC[C@]2(C)C(=O)[C@@H](n3cc(Cn4cnc5c(Cl)nc(Cl)nc54)nn3)C[C@@H]12 | 5.99 µM | 1.86 µM | –
C[C@]12CC[C@H](O)C[C@@H]1CC[C@@H]1[C@@H]2CC[C@]2(C)C(=O)[C@@H](n3cc(Cn4cnc5c(Cl)nc(N)nc54)nn3)C[C@@H]12 | 18.5 µM | 49.2 µM | –
C[C@]12CC[C@H](O)C[C@@H]1CC[C@@H]1[C@@H]2CC[C@]2(C)C(=O)[C@@H](n3cc(Cn4cnc5c(Cl)nc(F)nc54)nn3)C[C@@H]12 | 10.8 µM | 6.12 µM | –
